Experimental data as given in the supplement of paper PMC6965134.

Experiment: TIMS collisional cross section (CCS, N2) of the lipid ion; higher = larger ion cross section
Settings: ionization mode: positive, one isomer drawn

TIMS collisional cross section (sample type: HeLa) [Å²]	TIMS collisional cross section (sample type: plasma) [Å²]	TIMS collisional cross section (sample type: Liver) [Å²]	SMILES
328.5	–	–	CC/C=C\C/C=C\C/C=C\C/C=C\C/C=C\CCCCCC(=O)OC[C@@H](COC(=O)CCCCCCCCCCCCCCC)OC(=O)CCCCCCC/C=C\CCCCCCCC [TG 16:0_18:1_22:5] (ion (formula + adduct): [C59H102O6+NH4] 1+)
–	315.8	–	CC/C=C\C/C=C\C/C=C\CCCCCCCC(=O)OC[C@@H](COC(=O)CCCCCCCCCCCCCCC)OC(=O)CCCCCCC/C=C\C/C=C\CCCCC [TG 16:0_18:2_18:3] (ion (formula + adduct): [C55H96O6+NH4] 1+)
–	–	322.3	CCCCC/C=C\C/C=C\C/C=C\CCCCCCC(=O)OC[C@@H](COC(=O)CCCCCCCCCCCCCCC)OC(=O)CCCCCCC/C=C\C/C=C\CCCCC [TG 16:0_18:2_20:3] (ion (formula + adduct): [C57H100O6+NH4] 1+)
–	321.2	–	CCCCC/C=C\C/C=C\C/C=C\C/C=C\CCCC(=O)OC[C@@H](COC(=O)CCCCCCCCCCCCCCC)OC(=O)CCCCCCC/C=C\C/C=C\CCCCC [TG 16:0_18:2_20:4] (ion (formula + adduct): [C57H98O6+NH4] 1+)
–	319.9	318.1	CC/C=C\C/C=C\C/C=C\C/C=C\C/C=C\CCCC(=O)OC[C@@H](COC(=O)CCCCCCCCCCCCCCC)OC(=O)CCCCCCC/C=C\C/C=C\CCCCC [TG 16:0_18:2_20:5] (ion (formula + adduct): [C57H96O6+NH4] 1+)
–	327.9	328	CCCCC/C=C\C/C=C\C/C=C\C/C=C\CCCCCC(=O)OC[C@@H](COC(=O)CCCCCCCCCCCCCCC)OC(=O)CCCCCCC/C=C\C/C=C\CCCCC [TG 16:0_18:2_22:4] (ion (formula + adduct): [C59H102O6+NH4] 1+)
–	–	325.3	CC/C=C\C/C=C\C/C=C\C/C=C\C/C=C\C/C=C\CCC(=O)OC[C@@H](COC(=O)CCCCCCCCCCCCCCC)OC(=O)CCCCCCC/C=C\C/C=C\CCCCC [TG 16:0_18:2_22:6] (ion (formula + adduct): [C59H98O6+NH4] 1+)
–	–	322.1	CC/C=C\C/C=C\C/C=C\C/C=C\C/C=C\C/C=C\CCC(=O)OC[C@@H](COC(=O)CCCCCCCCCCCCCCC)OC(=O)CCCC/C=C\C/C=C\C/C=C\C/C=C\CC [TG 16:0_18:4_22:6] (ion (formula + adduct): [C59H94O6+NH4] 1+)
341.2	340.7	340.8	CCCCCCCCCCCCCCCCCCCCCC(=O)OC[C@@H](COC(=O)CCCCCCCCCCCCCCC)OC(=O)CCCCCCCCCCCCCCCCCC [TG 16:0_19:0_22:0] (ion (formula + adduct): [C60H116O6+NH4] 1+)
331.2	–	–	CC/C=C\C/C=C\C/C=C\C/C=C\C/C=C\CCCCCC(=O)OC[C@@H](COC(=O)CCCCCCCCCCCCCCC)OC(=O)CCCCCCC/C=C\CCCCCCCCC [TG 16:0_19:1_22:5] (ion (formula + adduct): [C60H104O6+NH4] 1+)
–	–	332.3	CCCCC/C=C\C/C=C\C/C=C\C/C=C\CCCC(=O)OC[C@@H](COC(=O)CCCCCCCCCCCCCCC)OC(=O)CCCCCCCCCCCCCCCCCCC [TG 16:0_20:0_20:4] (ion (formula + adduct): [C59H106O6+NH4] 1+)
339.7	–	–	CCCCCCCCCCCCCCCCCCCCC(=O)OC[C@@H](COC(=O)CCCCCCCCCCCCCCC)OC(=O)CCCCCCCCCCCCCCCCCCC [TG 16:0_20:0_21:0] (ion (formula + adduct): [C60H116O6+NH4] 1+)
344.3	343.5	–	CCCCCCCCCCCCCCCCCCCCCC(=O)OC[C@@H](COC(=O)CCCCCCCCCCCCCCC)OC(=O)CCCCCCCCCCCCCCCCCCC [TG 16:0_20:0_22:0] (ion (formula + adduct): [C61H118O6+NH4] 1+)
–	333.9	–	CCCCC/C=C\C/C=C\C/C=C\CCCCCCCCC(=O)OC[C@@H](COC(=O)CCCCCCCCCCCCCCC)OC(=O)CCCCCCCCCCCCCCCCCCC [TG 16:0_20:0_22:3] (ion (formula + adduct): [C61H112O6+Na] 1+)
–	–	335.3	CC/C=C\C/C=C\C/C=C\C/C=C\C/C=C\C/C=C\CCC(=O)OC[C@@H](COC(=O)CCCCCCCCCCCCCCC)OC(=O)CCCCCCCCCCCCCCCCCCC [TG 16:0_20:0_22:6] (ion (formula + adduct): [C61H106O6+NH4] 1+)
329.4	–	329.3	CC/C=C\C/C=C\C/C=C\C/C=C\C/C=C\C/C=C\CCC(=O)OC[C@@H](COC(=O)CCCCCCCCCCCCCCC)OC(=O)CCCCCC/C=C\C/C=C\C/C=C\CCCCC [TG 16:0_20:3_22:6] (ion (formula + adduct): [C61H100O6+NH4] 1+)
–	–	338.2	CCCCC/C=C\C/C=C\C/C=C\C/C=C\CCCC(=O)O[C@H](COC(=O)CCCCCCCCCCCCCCC)COC(=O)CCCCCCCCCCCCCCCCCCCCC [TG 16:0_20:4_22:0] (ion (formula + adduct): [C61H110O6+NH4] 1+)

TIMS collisional cross section (sample type: HeLa) [Å²]	TIMS collisional cross section (sample type: plasma) [Å²]	TIMS collisional cross section (sample type: Liver) [Å²]	SMILES
346.3	346	–	CCCCCCCCCCCCCCCCCCCCCC(=O)OC[C@@H](COC(=O)CCCCCCCCCCCCCCC)OC(=O)CCCCCCCCCCCCCCCCCCCC [TG 16:0_21:0_22:0] (ion (formula + adduct): [C62H120O6+NH4] 1+)
–	342.3	–	CCCCC/C=C\C/C=C\CCCCCCCCCCCC(=O)OC[C@@H](COC(=O)CCCCCCCCCCCCCCC)OC(=O)CCCCCCCCCCCCCCCCCCCC [TG 16:0_21:0_22:2] (ion (formula + adduct): [C62H116O6+NH4] 1+)
–	–	340.7	CC/C=C\C/C=C\C/C=C\C/C=C\C/C=C\C/C=C\CCC(=O)OC[C@@H](COC(=O)CCCCCCCCCCCCCCC)OC(=O)CCCCCCCCCCCCCCCCCCCCC [TG 16:0_22:0_22:6] (ion (formula + adduct): [C63H110O6+NH4] 1+)
332.8	–	–	CC/C=C\C/C=C\C/C=C\C/C=C\C/C=C\C/C=C\CCC(=O)OC[C@@H](COC(=O)CCCCCCCCCCCCCCC)OC(=O)CCCCC/C=C\C/C=C\C/C=C\C/C=C\C/C=C\CC [TG 16:0_22:5_22:6] (ion (formula + adduct): [C63H100O6+NH4] 1+)
–	–	331.6	CC/C=C\C/C=C\C/C=C\C/C=C\C/C=C\C/C=C\CCC(=O)OC[C@@H](COC(=O)CCCCCCCCCCCCCCC)OC(=O)CC/C=C\C/C=C\C/C=C\C/C=C\C/C=C\C/C=C\CC [TG 16:0_22:6_22:6] (ion (formula + adduct): [C63H98O6+NH4] 1+)
313.4	–	–	CCCCCC/C=C\CCCCCCCC(=O)OC[C@H](COC(=O)CCCCCCC/C=C\CCCCCCCC)OC(=O)CCCCCCC/C=C\CCCCCC [TG 16:1_16:1_18:1] (ion (formula + adduct): [C53H96O6+NH4] 1+)
311.9	311.2	310.5	CCCCC/C=C\C/C=C\CCCCCCCC(=O)OC[C@@H](COC(=O)CCCCCCC/C=C\CCCCCC)OC(=O)CCCCCCC/C=C\CCCCCC [TG 16:1_16:1_18:2] (ion (formula + adduct): [C53H94O6+NH4] 1+)
318.5	–	317.3	CC/C=C\C/C=C\C/C=C\C/C=C\C/C=C\C/C=C\CCC(=O)OC[C@@H](COC(=O)CCCCCCC/C=C\CCCCCC)OC(=O)CCCCCCC/C=C\CCCCCC [TG 16:1_16:1_22:6] (ion (formula + adduct): [C57H94O6+NH4] 1+)
315.7	–	–	CCCCCC/C=C\CCCCCCCC(=O)OC[C@H](COC(=O)CCCCCCC/C=C\CCCCCCC)OC(=O)CCCCCCCCCCCCCCCC [TG 16:1_17:0_17:1] (ion (formula + adduct): [C53H98O6+NH4] 1+)
320.7	–	–	CCCCCC/C=C\CCCCCCCC(=O)OC[C@H](COC(=O)CCCCCCCCCCCCCCCCC)OC(=O)CCCCCCCCCCCCCCCC [TG 16:1_17:0_18:0] (ion (formula + adduct): [C54H102O6+NH4] 1+)
314.8	–	–	CCCCCC/C=C\CCCCCCCC(=O)OC[C@H](COC(=O)CCCCCCC/C=C\CCCCCCC)OC(=O)CCCCCCC/C=C\CCCCCCC [TG 16:1_17:1_17:1] (ion (formula + adduct): [C53H96O6+NH4] 1+)
318.7	–	–	CCCCCC/C=C\CCCCCCCC(=O)OC[C@H](COC(=O)CCCCCCCCCCCCCCCCC)OC(=O)CCCCCCC/C=C\CCCCCCC [TG 16:1_17:1_18:0] (ion (formula + adduct): [C54H100O6+NH4] 1+)
316.5	–	–	CCCCCC/C=C\CCCCCCCC(=O)OC[C@H](COC(=O)CCCCCCC/C=C\CCCCCCCC)OC(=O)CCCCCCC/C=C\CCCCCCC [TG 16:1_17:1_18:1] (ion (formula + adduct): [C54H98O6+NH4] 1+)
315.1	314.6	313.9	CCCCC/C=C\C/C=C\CCCCCCCC(=O)OC[C@@H](COC(=O)CCCCCCC/C=C\CCCCCC)OC(=O)CCCCCCC/C=C\CCCCCCC [TG 16:1_17:1_18:2] (ion (formula + adduct): [C54H96O6+NH4] 1+)
314.8	–	–	CC/C=C\C/C=C\C/C=C\CCCCCCCC(=O)OC[C@@H](COC(=O)CCCCCCC/C=C\CCCCCC)OC(=O)CCCCCCC/C=C\CCCCCCC [TG 16:1_17:1_18:3] (ion (formula + adduct): [C54H94O6+NH4] 1+)
319.7	–	319.7	CCCCC/C=C\C/C=C\CCCCCCCC(=O)OC[C@@H](COC(=O)CCCCCCC/C=C\CCCCCC)OC(=O)CCCCCCCCCCCCCCCCC [TG 16:1_18:0_18:2] (ion (formula + adduct): [C55H100O6+NH4] 1+)
